ChEMBL document CHEMBL1201862, “PubChem BioAssay data set” (2004)
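Assay format: 96-well plates, 48-hour exposure. GI50: concentration for 50% inhibition of growth.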 Calls of active or inactive are those of the source. Cut-off read from the data, not from the text of the source: active = GI50 up to about 1.1 µM and inactive = higher.

Columns and labels:
Assay in all cases: inhibition of tumour cell growth, NCI panel, 48 h
[1] = system: 786-0
[2] = system: CAKI-1
[3] = system: EKVX
[4] = system: HCT-15
[5] = system: HOP-62
[6] = system: IGROV-1
[7] = system: LOX IMVI
[8] = system: M14
[9] = system: Malme-3M
[10] = system: NCI-H522
[11] = system: OVCAR-3
[12] = system: OVCAR-4
[13] = system: OVCAR-5
[14] = system: SF-295
[15] = system: SK-MEL-5
[16] = system: UACC-257
[17] = system: UACC-62
[18] = system: NCI-H226

SMILES | GI50 [1] | GI50 [2] | GI50 [3] | GI50 [4] | GI50 [5] | GI50 [6] | GI50 [7] | GI50 [8] | GI50 [9] | GI50 [10] | GI50 [11] | GI50 [12] | GI50 [13] | GI50 [14] | GI50 [15] | GI50 [16] | GI50 [17] | GI50 [18]
CCN(CC)c1ccc(C(=O)c2ccccc2C(=O)O)c(O)c1 | > 100 µM (inactive) | > 100 µM (inactive) | > 100 µM (inactive) | > 100 µM | > 100 µM (inactive) | > 100 µM (inactive) | > 100 µM (inactive) | > 100 µM (inactive) | > 100 µM (inactive) | 42.9 µM (inactive) | > 100 µM (inactive) | > 100 µM (inactive) | > 100 µM (inactive) | > 100 µM (inactive) | > 100 µM (inactive) | > 100 µM (inactive) | > 100 µM (inactive) | 
COCCOCOC(C)(C)[C@H](CCO)O[Si](c1ccccc1)(c1ccccc1)C(C)(C)C |  |  | 13.5 µM (inactive) | 4.68 µM |  | 9.14 µM (inactive) | 8.36 µM (inactive) | 9.89 µM (inactive) | 14.3 µM (inactive) | 4.57 µM (inactive) | 10.2 µM (inactive) |  | 14.1 µM (inactive) | 5.74 µM (inactive) | 13.4 µM (inactive) | 8.77 µM (inactive) | 12 µM (inactive) | 
O=C(NN1C(=O)CS(=O)(=O)C1c1ccc(C(F)(F)F)cc1)c1ccncc1 (stereo unspecified) |  | > 100 µM (inactive) |  | > 100 µM | > 100 µM (inactive) |  | > 100 µM (inactive) | > 100 µM (inactive) | > 100 µM (inactive) | > 100 µM (inactive) |  | > 100 µM (inactive) | > 100 µM (inactive) | > 100 µM (inactive) | > 100 µM (inactive) | > 100 µM (inactive) |  | > 100 µM (inactive)
Nc1nc(Cl)cc(NCCCCCCNc2cc(Cl)nc(N)n2)n1 | > 100 µM (inactive) | 27.7 µM (inactive) | > 100 µM (inactive) | 78.9 µM | > 100 µM (inactive) | > 100 µM (inactive) | 20.8 µM (inactive) | > 100 µM (inactive) |  | 27.7 µM (inactive) | 34 µM (inactive) | 88.9 µM (inactive) | 16 µM (inactive) | 28.1 µM (inactive) | 13.1 µM (inactive) | 59.6 µM (inactive) | 12 µM (inactive) | 25.8 µM (inactive)
O=C(Nc1nccs1)c1cc(C2=CC=CC([N+](=O)[O-])C=C2)nc(S)n1 (stereo unspecified) | > 100 µM (inactive) | > 100 µM (inactive) | > 100 µM (inactive) | > 100 µM | > 100 µM (inactive) | > 100 µM (inactive) | > 100 µM (inactive) | > 100 µM (inactive) | > 100 µM (inactive) | > 100 µM (inactive) | > 100 µM (inactive) |  | > 100 µM (inactive) | > 100 µM (inactive) | > 100 µM (inactive) | > 100 µM (inactive) | > 100 µM (inactive) | > 100 µM (inactive)
COc1ccccc1/C=C1\CCC(CCN2CCOCC2)C1=O (stereo unspecified) | > 100 µM (inactive) | > 100 µM (inactive) | > 100 µM (inactive) | 91.8 µM | > 100 µM (inactive) | > 100 µM (inactive) | 63.2 µM (inactive) | > 100 µM (inactive) | > 100 µM (inactive) |  | > 100 µM (inactive) | 37.8 µM (inactive) | > 100 µM (inactive) | > 100 µM (inactive) | 68.1 µM (inactive) | > 100 µM (inactive) | > 100 µM (inactive) | > 100 µM (inactive)
COc1cc2c(cc1OC)C(Cc1c3ccccc3cc3ccccc13)N(C)CC2 (stereo unspecified) |  | 25.1 µM (inactive) | 25.6 µM (inactive) | 30.2 µM | 21.4 µM (inactive) | 20.7 µM (inactive) | 18 µM (inactive) |  |  | 24.4 µM (inactive) | 27.7 µM (inactive) | 30.7 µM (inactive) | 13.5 µM (inactive) | 17.4 µM (inactive) | 17.3 µM (inactive) | 18.9 µM (inactive) | 17.8 µM (inactive) | 24.1 µM (inactive)
O=C(Nc1ccc(Cl)c(Cl)c1)C(=O)C(C(=O)c1ccccc1-c1ccccc1)C1OC(=O)c2ccccc21 (stereo unspecified) | 11.2 µM (inactive) |  | 20.8 µM (inactive) |  | 13.1 µM (inactive) | 24.2 µM (inactive) | 13.5 µM (inactive) | 14.7 µM (inactive) | 8.55 µM (inactive) | 6.56 µM (inactive) | 13.1 µM (inactive) |  | 18.5 µM (inactive) | 17.1 µM (inactive) | 15.1 µM (inactive) | 18.9 µM (inactive) | 15.8 µM (inactive) | 3.04 µM (inactive)
O=C1[C@@H]2C(c3ccc(Cl)cc3Cl)=NO[C@@H]2C(=O)N1c1ccc(Cc2ccc(N3C(=O)[C@H]4C(c5ccc(Cl)cc5Cl)=NO[C@H]4C3=O)cc2)cc1 | 45.9 µM (inactive) | 60.4 µM (inactive) | > 100 µM (inactive) | 46.6 µM | > 100 µM (inactive) | 70 µM (inactive) | 47.8 µM (inactive) | 37.7 µM (inactive) | 84.3 µM (inactive) |  | 61 µM (inactive) | > 100 µM (inactive) | > 100 µM (inactive) | 74 µM (inactive) | 52.1 µM (inactive) | 41.6 µM (inactive) | 71.6 µM (inactive) | > 100 µM (inactive)
